In patent US20110206792A1, “COMPOSITIONS COMPRISING VITAMINS” (priority 2008, published 2011):

Experiment: Stability studies for Melatonin, Resveratrol and L-ascorbic acid in cosmetic serum (HPLC with diode array detection, 55 days)
Assay type: physicochemical
Settings: for concentration in the mixed formulation: formulation containing all three compounds, unchanged over 55 days; for change of concentration/percentage over 55 days: mixed versus single component formulation, 25° C. and 40° C.
Description: Stability studies for Melatonin, Resveratrol and L-ascorbic acid in cosmetic serum Object of this work was the studies related to the stability of Melatonin, Resveratrol and L-ascorbic acid when individually present in formulation in comparison with a formulation in which they are simultaneously mixed together, in order to explore the potential stabilization of L-ascorbic acid by Melatonin. The stability studies were performed at 25° C. (room temperature) and 40° C. (oven) for 55 days. Four formulations were analyzed: one mixture containing the three compounds together plus 3 formulations, which individually contained the three compounds. The excipients were all the same in the four formulations. The method employed to follow formulation stability is an HPLC method with diode array detection, under gradient conditions, as specified in the previous report. The results of these studies are shown in the graphs reported in FIGS. 10, 11 and 12 as well as in the following Tables 1, 2 and 3 where the percentages of the three compounds in the formulation (p/p) are plotted against time. In particular, the percentages were determined over 55 days, by comparison with reference standard compounds.

[1] = mix (three compounds together), T = 25° C., day 0
[2] = mix (three compounds together), T = 25° C., day 2
[3] = mix (three compounds together), T = 25° C., day 50
[4] = mix (three compounds together), T = 25° C., day 55
[5] = mix (three compounds together), T = 40° C., day 0
[6] = mix (three compounds together), T = 40° C., day 42
[7] = mix (three compounds together), T = 40° C., day 44
[8] = mix (three compounds together), T = 40° C., day 48
[9] = mix (three compounds together), T = 40° C., day 51
[10] = mix (three compounds together), T = 40° C., day 55
[11] = single component formulation, T = 25° C., day 0
[12] = single component formulation, T = 25° C., day 2
[13] = single component formulation, T = 25° C., day 44
[14] = single component formulation, T = 25° C., day 48
[15] = single component formulation, T = 25° C., day 50
[16] = single component formulation, T = 25° C., day 55
[17] = single component formulation, T = 40° C., day 0
[18] = single component formulation, T = 40° C., day 42
[19] = single component formulation, T = 40° C., day 48
[20] = single component formulation, T = 40° C., day 51
[21] = single component formulation, T = 40° C., day 55
[22] = mix (three compounds together), T = 25° C., day 44
[23] = mix (three compounds together), T = 25° C., day 48
[24] = single component formulation, T = 40° C., day 44

Row | concentration in the mixed formulation [%] | percentage of the compound in the formulation (p/p) [1] [%] | percentage of the compound in the formulation (p/p) [2] [%] | percentage of the compound in the formulation (p/p) [3] [%] | percentage of the compound in the formulation (p/p) [4] [%] | percentage of the compound in the formulation (p/p) [5] [%] | percentage of the compound in the formulation (p/p) [6] [%] | percentage of the compound in the formulation (p/p) [7] [%] | percentage of the compound in the formulation (p/p) [8] [%] | percentage of the compound in the formulation (p/p) [9] [%] | percentage of the compound in the formulation (p/p) [10] [%] | percentage of the compound in the formulation (p/p) [11] [%] | percentage of the compound in the formulation (p/p) [12] [%] | percentage of the compound in the formulation (p/p) [13] [%] | percentage of the compound in the formulation (p/p) [14] [%] | percentage of the compound in the formulation (p/p) [15] [%] | percentage of the compound in the formulation (p/p) [16] [%] | percentage of the compound in the formulation (p/p) [17] [%] | percentage of the compound in the formulation (p/p) [18] [%] | percentage of the compound in the formulation (p/p) [19] [%] | Structure (SMILES) | further results
1 | 14.5 | 15.34 | 14.10 | 15.10 | 15.00 | 14.35 | 14.30 | 15.13 | 13.50 | 14.96 | 15.00 | 13.40 | 13.32 | 8.80 | 10.80 | 10.50 | 10.43 | 14.86 | 8.46 | 8.60 | O=C1O[C@H]([C@@H](O)CO)C(O)=C1O [L-ascorbic acid] | change in L-ascorbic acid concentration (formulation containing all the three ingredients, 55 days): no change; loss of L-ascorbic acid (single component formulation, 25° C., 55 days): 22%; loss of L-ascorbic acid (single component formulation, 40° C., 55 days): 36%; percentage of the compound in the formulation (p/p) [20]: 9.00%; percentage of the compound in the formulation (p/p) [21]: 9.60%
2 | 0.20 | 0.20 | 0.25 | 0.23 | 0.20 | 0.18 | 0.17 | 0.18 | 0.14 | 0.18 | 0.20 | 0.28 | 0.33 | 0.30 | 0.26 | 0.31 | 0.30 | 0.26 | 0.25 | 0.29 | COc1ccc2[nH]cc(CCNC(C)=O)c2c1 [Melatonin] | percentage of the compound in the formulation (p/p) [22]: 0.20%; percentage of the compound in the formulation (p/p) [23]: 0.20%; change of concentration/percentage over 55 days: does not change much; concentration in the single component formulation (same concentration found after 55 days of storage at 25° C. and 40° C.): 0.28%; percentage of the compound in the formulation (p/p) [24]: 0.25%; percentage of the compound in the formulation (p/p) [20]: 0.29%; percentage of the compound in the formulation (p/p) [21]: 0.28%
3 | 0.20 | 0.20 | 0.20 | 0.14 | 0.16 | 0.20 | 0.18 | 0.18 | 0.20 | 0.16 | 0.18 | 0.22 | 0.19 | 0.17 | 0.20 | 0.17 | 0.17 | 0.22 | 0.16 | 0.18 | Oc1ccc(C=Cc2cc(O)cc(O)c2)cc1 [Resveratrol] | degradation (in 55 days, in all the conditions, formulations kept at 25° C. and 40° C.): approximately 10%; percentage of the compound in the formulation (p/p) [22]: 0.14%; percentage of the compound in the formulation (p/p) [23]: 0.20%; change of concentration/percentage over 55 days: does not change significantly; percentage of the compound in the formulation (p/p) (single component formulation, T = 40° C., day 2): 0.19%; percentage of the compound in the formulation (p/p) [24]: 0.20%; percentage of the compound in the formulation (p/p) [20]: 0.20%; percentage of the compound in the formulation (p/p) [21]: 0.20%
